Values of other authors in patent publication EP0514015A1, “Control of sex differentiation in fish” (MERCK & CO. INC., priority 1991, dated 1992).

Legend:
Oreochromis aureus = conditions: tilapia, broad range of doses, fed to 3 to 5-day old fry for a period of 22 days
Cyprinus carpio = conditions: carp, oral administration at 50ppm in feed from weeks 6 through 11 after hatching

Structure (SMILES)	sex-reversing (Oreochromis aureus)	phenotypic males (Cyprinus carpio)
C#C[C@]1(O)CC[C@H]2[C@@H]3CCC4=CC(=O)CC[C@]4(C)[C@H]3CC[C@@]21C [17-alpha-ethynyltestosterone]	effective	
C[C@]12CCC(=O)C=C1CC[C@@H]1[C@@H]2CC[C@@]2(C)[C@H]1CC[C@]2(C)O [17-alpha-methyltestosterone]	effective	greater than 90%
